In patent US8383581B2, “Short-chain peptides as parathyroid hormone (PTH) receptor agonist” (Cadila Healthcare Limited, priority 2009, dated 2013):
Where a SMILES comes first, the peptide text is derived from it. [ ]: non-standard residue; d: D form. ξ: configuration not given here. ξαMe(hhPhe) = CC(N)(CCCc1ccccc1)C(=O)O; ξαMePhe(2-F) = CC(N)(Cc1ccccc1F)C(=O)O; ξαMeW = CC(N)(Cc1c[nH]c2ccccc12)C(=O)O; hhPhe = N[C@@H](CCCc1ccccc1)C(=O)O; hArg = N=C(N)NCCCC[C@H](N)C(=O)O; NMeV = CN[C@H](C(=O)O)C(C)C; ξαMeNle = CCCCC(C)(N)C(=O)O; ξαMeV = CC(C)C(C)(N)C(=O)O; ξαMeM = CSCCC(C)(N)C(=O)O; Ac5c = NC1(C(=O)O)CCCC1; Ac3c = NC1(C(=O)O)CC1; Aib = CC(C)(N)C(=O)O

Experiments:
Assay type in all cases: in vitro ADME
[1] = Stability of peptides in simulated gastric fluid (pH 1.5; HCl, NaCl and Pepsin); conditions: pH 1.5; for % degradation of peptides in 24 h when incubated with simulated gastric fluid: 2 μM; for half-life: simulated gi fluid
[2] = Stability of peptides in human plasma; conditions: human, plasma; for metabolised at 24 h, 2 μM: pH 7.8
Outline: (§1)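 Peptides at 2 μM final incubated 0–24 h at 37 °C (50 mM triethanolamine-HCl, pH 7.8) in each matrix, matrix level set to degrade ~50% PTH(1-34) in 1 h; TFA-quenched, C18 HPLC at 206 nm with ESI-MS peak identification; percent degradation from peak areas at each time point.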

[3] = Stability of peptides in human liver microsomes; conditions: human, microsomes; for % degradation of peptides in 24 h when incubated with liver microsomes: 2 μM, pH 7.8
Outline: as §1

[4] = Stability of peptides in simulated intestinal fluid (pH 7.5); conditions: pH 7.5; for half-life: simulated gi fluid; for % degradation of peptides in 24 h when incubated with simulated intestinal fluid: 2 μM
Outline: as §1

% degradation of peptides in 24 h when incubated with simulated gastric fluid [1]	half-life [1]	half-life [2]	metabolised at 24 h, 2 μM [2]	half-life [3]	% degradation of peptides in 24 h when incubated with liver microsomes [3]	half-life [4]	% degradation of peptides in 24 h when incubated with simulated intestinal fluid [4]	half-life (t1/2) in liver microsomes [3]	half-life (t1/2) in human plasma [2]	Structure (SMILES)
52%	4 h	> 24 h	0%	2 h	81%	> 24 h	00%	–	–	CC[C@H](C)[C@H](NC(=O)[C@H](CCC(=O)O)NC(=O)C(C)(C)NC(=O)[C@@H](NC(=O)C1(NC(=O)[C@@H](N)C(C)C)CCCC1)C(C)C)C(=O)N[C@@H](CCC(N)=O)C(=O)N[C@@H](CC(C)C)C(=O)NC(C)(CCSC)C(=O)N[C@@H](Cc1c[nH]cn1)C(=O)N[C@@H](CCC(N)=O)C(=O)N[C@@H](CCCCNC(=N)N)C(=O)N[C@@H](C)C(=O)N[C@@H](CCCCNC(=N)N)C(=O)NC(C)(Cc1ccccc1F)C(=O)NC(C)(CCCc1ccccc1)C(N)=O (some centres unmarked) [Seq. ID. 936] (H-V[Ac5c]V[Aib]EIQL[ξαMeM]HQ[hArg]A[hArg][ξαMePhe(2-F)][ξαMe(hhPhe)]-NH2)
08%	> 22 h	> 20 h	10%	–	33%	> 22 h	09%	(5) h	–	CCCCC(C)(NC(=O)[C@H](CC(C)C)NC(=O)[C@H](CCC(N)=O)NC(=O)[C@@H](NC(=O)[C@H](CCC(=O)O)NC(=O)C(C)(C)NC(=O)[C@@H](NC(=O)C1(NC(=O)C(C)(N)C(C)C)CCCC1)C(C)C)[C@@H](C)CC)C(=O)N[C@@H](Cc1c[nH]cn1)C(=O)N[C@@H](CCC(N)=O)C(=O)N[C@@H](CCCCNC(=N)N)C(=O)N[C@@H](C)C(=O)N[C@@H](CCCCNC(=N)N)C(=O)NC(C)(Cc1ccccc1F)C(=O)NC(C)(CCCc1ccccc1)C(N)=O (some centres unmarked) [Seq. ID. 939] (H-[ξαMeV][Ac5c]V[Aib]EIQL[ξαMeNle]HQ[hArg]A[hArg][ξαMePhe(2-F)][ξαMe(hhPhe)]-NH2)
00%	> 24 h	> 24 h	0%	–	32%	> 24 h	00%	(5) h	–	CC[C@H](C)[C@H](NC(=O)[C@H](CCC(=O)O)NC(=O)C(C)(C)NC(=O)[C@@H](NC(=O)C1(NC(=O)[C@@H](NC)C(C)C)CCCC1)C(C)C)C(=O)N[C@@H](CCC(N)=O)C(=O)N[C@@H](CC(C)C)C(=O)NC(C)(CCSC)C(=O)N[C@@H](Cc1c[nH]cn1)C(=O)N[C@@H](CCC(N)=O)C(=O)N[C@@H](CCCCNC(=N)N)C(=O)N[C@@H](C)C(=O)N[C@@H](CCCCNC(=N)N)C(=O)NC(C)(Cc1ccccc1F)C(=O)NC(C)(CCCc1ccccc1)C(N)=O (some centres unmarked) [Seq. ID. 940] (H-[NMeV][Ac5c]V[Aib]EIQL[ξαMeM]HQ[hArg]A[hArg][ξαMePhe(2-F)][ξαMe(hhPhe)]-NH2)
100%	0.5 h	–	75%	0.5 h	100%	0.5 h	100%	–	(9) h	CCCCC(C)(NC(=O)[C@H](CC(C)C)NC(=O)[C@H](CCC(N)=O)NC(=O)[C@@H](NC(=O)[C@H](CCC(=O)O)NC(=O)C(C)(C)NC(=O)[C@@H](NC(=O)C1(N)CC1)C(C)C)[C@@H](C)CC)C(=O)N[C@@H](Cc1c[nH]cn1)C(=O)N[C@@H](CCC(N)=O)C(=O)N[C@@H](CCCCNC(=N)N)C(=O)N[C@@H](C)C(=O)N[C@@H](CCCCNC(=N)N)C(=O)NC(C)(Cc1c[nH]c2ccccc12)C(=O)N[C@@H](CCCc1ccccc1)C(N)=O (some centres unmarked) [Seq. ID. 945] (H-[Ac3c]V[Aib]EIQL[ξαMeNle]HQ[hArg]A[hArg][ξαMeW][hhPhe]-NH2)
